The test system of the assay is amnesia in mice, as caused by scopolamine. As to the kind of experiment: CPAR, model of amnesia caused by scopolamine. Type of assay: in vivo. The following applies: scopolamine 1 mg/kg i.p. As to the method: For this, the active substances Melatonin 3 mg/Memantin 10 mg, Melatonin 5 mg/Memantin 20 mg, Melatonin 10 mg/Memantin 20 mg were taken, and doses recommended for human beings were converted into doses adapted for mice according to the formula “(active substance/70(average weight of a human being))×7”. Then the compositions were dissolved in 5 mL of the solution and, according to the given formula, introduced to animals intraperitoneally once a day for 5 days.
The CPAR test is the main model for evaluating substance influences on formation and replication of short-time memory in a normal condition and in an abnormal condition, i.e., induced amnesia. The CPAR is the most informative method among the methods that are used today for evaluating efficiency of substances with influence on the CNS of mammals (see, “Manual for Experimental (Pre-Clinical) Studies of New Pharmacological Substances”, 2000). The CPAR (conditioned passive avoidance reflex in a dark, light chamber) was taught to the mice on the basis of electrodermal response according to the method proposed by Cumin et al. (1982) with due regard to the recommendations given by Mondadori et al. (1990). The installation for mice, as produced by Lafayette Instrument Co., USA, was a black chamber with the electrode floor and a white plastic platform that was arranged on the floor in the center of the chamber. The mice, one by one, were put onto the plastic platform. The animals went/jumped down onto the electrode floor where they received an electric current shock, i.e., punishment. Electric current was supplied after the time when an animal stood on the floor with all its four legs. The natural response of the animals is to go back to the current-free or safe platform. […] Tests for memorizing CPAR were conducted in successive time intervals after amnesic action. In a case where an animal went/jumped down onto the platform within 1 minute, it was recorded as having retrograde amnesia of the passive avoidance skill. The compositions were studied in comparison with Melatonin 5 mg (mono-use) and Memantin 10 mg (mono-use), according to the above formula for adapting to animal models.
The compositions under study were dissolved in 5 mL of the solution and, according to the above formula, introduced to the animals intraperitoneally, once a day for 5 days.

[1] abbreviates: 1 day after teaching, Melatonin 5 mg, Memantin 10 mg mono-use.

`CN1[C@@H]2C[C@@H](OC(=O)[C@H](CO)c3ccccc3)C[C@H]1[C@@H]1O[C@@H]12` [Scopolamine]: the “Latent time of entering into the dark chamber” value under setting [1] is listed as 72.3 ± 25.6 s. Besides, the “Number of mice not entered into the dark chamber, %” value by setting is: under setting [1], 25%; (3 days after teaching, Melatonin 5 mg, Memantin 10 mg mono-use) 33.3%; (7 days after teaching, Melatonin 5 mg, Memantin 10 mg mono-use) 41.6%; (10 days after teaching, Melatonin 5 mg, Memantin 10 mg mono-use) 50%. The “CPAR amnesia observed, % of the animals” value (in 24 hours, p<0.001) stood at 90%. Moreover, the “Number of mice taught to CPAR (%)” value (agents i.p. once a day for 5 days, Melatonin 5 mg, Memantin 10 mg mono-use) is listed as 58.3%.

These data come from patent US9999614B2, “Combination for the prophylaxis and treatment of behavioural, mental, and cognitive disorders” (LTD “VALENTA-INTELLEKT”, priority 2012, dated 2018).
